Laboratory results published in patent US20100093776A1, “Organic Compounds and Their Uses” (Novartis AG, priority 2006, published 2010).

Experiments:
[1] = molecular target: T1, CDK1/cyclinB (Homo sapiens, UniProt P06493); assay: CDK1/cyclinB IMAP fluorescence polarization kinase assay; format: biochemical; conditions: 52 μM ATP, two hours at room temperature
T1 construct: purchased Millipore
Protocol: (§1) Kinase assays were performed on recombinant purified enzymes using the non-radioactive IMAP fluorescence polarization assay format.
(§2) Compound stocks were prepared and diluted in DMSO and were added to kinase reactions at a 1/100 dilution for a final concentration of 1% DMSO. The components were added together to final concentrations listed in the tables below and incubated for two hours at room temperature.
(§3) The reactions were stopped by addition of stop solution.
(§4) CDK9/CDK1/CDK7: final stop concentration is 1× Developer buffer (85% A/15% B), IMAP beads 1/400
(§5) The samples were allowed to incubate for one more hour at room temperature and then the fluorescence polarization was measured. The plate normalized millipolarization (mP) values were plotted against the log of compound concentration for each compound and IC50 values were calculated using the spotfire IC50 calculator and confirmed by visual analysis.

[2] = molecular target: T2, CDK2/cyclinA (Homo sapiens, UniProt P24941); assay: CDK2/cyclinA IMAP fluorescence polarization kinase assay; format: biochemical; conditions: 4.68 μM ATP, two hours at room temperature
T2 construct: purchased Millipore
Protocol: as §1, §2, §3
CDK2: final stop concentration is 1× Developer buffer (100% A), IMAP beads 1/400
as §5

[3] = molecular target: T3, CDK9/cyclinT1 (Homo sapiens, UniProt P50750); assay: CDK9/cyclinT1 IMAP fluorescence polarization kinase assay; format: biochemical; conditions: 6 μM ATP, two hours at room temperature
T3 construct: purchased Millipore
T3 sequence (P50750 whole entry): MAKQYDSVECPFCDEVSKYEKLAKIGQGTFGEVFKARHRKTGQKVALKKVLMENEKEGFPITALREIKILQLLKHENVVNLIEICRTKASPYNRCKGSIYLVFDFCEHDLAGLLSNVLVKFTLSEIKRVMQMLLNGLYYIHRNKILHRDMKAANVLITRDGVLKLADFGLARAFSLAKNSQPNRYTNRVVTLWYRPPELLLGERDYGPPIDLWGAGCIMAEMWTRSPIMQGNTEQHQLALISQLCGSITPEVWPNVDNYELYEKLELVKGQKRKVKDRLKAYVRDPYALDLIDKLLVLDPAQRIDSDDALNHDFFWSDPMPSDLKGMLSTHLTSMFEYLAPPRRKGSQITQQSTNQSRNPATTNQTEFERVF
T3 sequence (O60563 whole entry partner): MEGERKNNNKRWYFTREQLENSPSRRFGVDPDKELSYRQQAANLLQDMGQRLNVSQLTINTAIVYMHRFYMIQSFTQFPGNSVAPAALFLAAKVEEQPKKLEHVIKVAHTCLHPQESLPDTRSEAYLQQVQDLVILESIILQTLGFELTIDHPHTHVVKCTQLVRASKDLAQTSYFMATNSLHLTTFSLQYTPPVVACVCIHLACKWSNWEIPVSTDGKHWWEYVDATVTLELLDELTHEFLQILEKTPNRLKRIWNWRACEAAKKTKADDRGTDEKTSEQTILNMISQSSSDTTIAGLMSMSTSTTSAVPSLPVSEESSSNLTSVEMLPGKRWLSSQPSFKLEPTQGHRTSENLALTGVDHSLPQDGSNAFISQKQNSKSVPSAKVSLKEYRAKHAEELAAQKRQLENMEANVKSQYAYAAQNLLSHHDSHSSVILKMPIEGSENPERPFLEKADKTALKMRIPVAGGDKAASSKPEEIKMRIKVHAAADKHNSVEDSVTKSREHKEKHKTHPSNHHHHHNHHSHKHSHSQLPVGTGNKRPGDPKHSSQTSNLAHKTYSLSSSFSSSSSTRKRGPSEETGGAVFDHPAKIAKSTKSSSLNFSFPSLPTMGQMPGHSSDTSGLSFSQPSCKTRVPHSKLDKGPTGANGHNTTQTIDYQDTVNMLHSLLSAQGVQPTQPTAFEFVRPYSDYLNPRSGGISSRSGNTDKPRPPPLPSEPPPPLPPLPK
Protocol: as §1, §2, §3, §4, §5

[4] = test system: RNA polymerase II CTD serine2 phosphorylation in Hep3B cells; assay: H5 (Ser2) Ab High Content Screen: RNA polymerase II CTD serine2 phosphorylation Assay; format: cell-based; conditions: Homo sapiens, compounds for 2 hours, H5 antibody nuclear staining
Protocol: H5 (also referred as Ser2) Ab High Content Screen: RNA polymerase II CTD serine2 phosphorylation Assay
1. Cells are plated into 384 well plates: 30 μl of Hep3B cells (4,000 cells/30 μl) in DMEM with 3% FBS are plated into wells of a tissue culture treated clear bottomed 384 well plate. Cells are allowed to adhere during an overnight incubation.
2. Cells are treated with compounds for two hours: 10 μl of DMEM with 3% FBS is added to each well with a final concentration of DMSO equal to 1%. Cells are incubated with compounds for 2 hours.
3. Cells are fixed and permeabilized. Cells are washed with 30 mM HEPES pH=7.3 then fixed in 4% paraformaldehyde in 30 mM HEPES pH=7.3 for one hour at room temperature. The fix is removed by washing the cells with Tris buffered saline (TBS) and the cells are permeabilized by incubation in TBS with 0.5% triton X-100 for 30 minutes at room temperature. Triton is removed by washing the cells with TBS.
4. Cells are stained with H5 monoclonal antibody and nuclei are stained with Hoechst dye 33342: Block cells by incubating in TBS with 1% Bovine serum albumin (BSA) for one hour at room temperature. Incubate primary H5 Ab (1/250) overnight at 4 degrees in PBS with 1% BSA and 0.1% Tween-20. The next day wash cells with TBS. Add secondary antibody, anti-IgM labeled with cy5 (1/450), and Hoecsht dye 33342 (10 μg/ml) in TBS with 1% BSA and incubate one hour at room temperature. Wash cells with PBS.
5. Measure staining using the In-cell Analyzer system from GE Healthcare. Nuclei were located using the Hoecsht 33342 dye signal and H5 Antibody staining was quantified by measuring cy5 label. Nuclear intensity of H5 staining was plotted against the log of compound concentration for each compound and IC-50 values were calculated using the spotfire IC-50 calculator and confirmed by visual analysis.

[5] = molecular target: CDK4 (Homo sapiens, UniProt P11802); assay: CDK4 kinase assay (IMAP fluorescence polarization); format: biochemical
Sequence of CDK4 (P11802 whole entry, species assumed): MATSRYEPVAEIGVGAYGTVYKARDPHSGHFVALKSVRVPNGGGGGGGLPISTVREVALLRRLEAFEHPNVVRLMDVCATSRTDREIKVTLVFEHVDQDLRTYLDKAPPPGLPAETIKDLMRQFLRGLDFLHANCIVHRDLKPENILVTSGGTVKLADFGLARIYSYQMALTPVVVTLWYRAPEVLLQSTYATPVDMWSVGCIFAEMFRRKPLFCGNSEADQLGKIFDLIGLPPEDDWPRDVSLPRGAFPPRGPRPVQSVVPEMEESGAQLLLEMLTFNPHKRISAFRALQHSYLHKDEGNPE
Sequence of CDK4 (P24385 whole entry partner, species assumed): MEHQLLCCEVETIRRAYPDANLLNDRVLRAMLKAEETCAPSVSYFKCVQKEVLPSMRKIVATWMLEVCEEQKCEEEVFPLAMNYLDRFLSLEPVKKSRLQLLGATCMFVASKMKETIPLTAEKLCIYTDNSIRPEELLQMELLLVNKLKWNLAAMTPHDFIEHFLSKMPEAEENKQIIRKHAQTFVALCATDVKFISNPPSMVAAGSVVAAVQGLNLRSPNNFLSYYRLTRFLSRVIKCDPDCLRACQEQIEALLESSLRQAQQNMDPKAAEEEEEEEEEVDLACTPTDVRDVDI
Protocol: as §1, §2, §5

[6] = molecular target: CDK5 (Homo sapiens, UniProt Q00535); assay: CDK5 kinase assay (IMAP fluorescence polarization); format: biochemical
Sequence of CDK5 (Q00535 whole entry, species assumed): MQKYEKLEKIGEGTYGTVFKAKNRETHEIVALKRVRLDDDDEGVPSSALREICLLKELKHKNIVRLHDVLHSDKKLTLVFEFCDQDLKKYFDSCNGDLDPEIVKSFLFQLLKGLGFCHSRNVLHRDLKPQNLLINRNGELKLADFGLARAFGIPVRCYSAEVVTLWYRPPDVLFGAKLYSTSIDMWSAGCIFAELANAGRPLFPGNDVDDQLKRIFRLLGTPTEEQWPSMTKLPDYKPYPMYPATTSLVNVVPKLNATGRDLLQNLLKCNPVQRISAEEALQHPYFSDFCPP
Sequence of CDK5 (Q15078 whole entry partner, species assumed): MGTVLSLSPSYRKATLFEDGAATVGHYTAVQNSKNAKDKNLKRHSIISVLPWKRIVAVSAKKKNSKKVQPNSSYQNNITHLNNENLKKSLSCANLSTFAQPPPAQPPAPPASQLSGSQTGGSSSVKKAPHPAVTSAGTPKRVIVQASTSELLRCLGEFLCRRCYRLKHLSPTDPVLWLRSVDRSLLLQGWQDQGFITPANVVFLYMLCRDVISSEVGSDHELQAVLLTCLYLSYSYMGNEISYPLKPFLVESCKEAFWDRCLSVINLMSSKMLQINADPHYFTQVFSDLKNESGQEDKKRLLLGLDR
Protocol: as §1, §2, §5

T1 sequence (P06493 whole entry): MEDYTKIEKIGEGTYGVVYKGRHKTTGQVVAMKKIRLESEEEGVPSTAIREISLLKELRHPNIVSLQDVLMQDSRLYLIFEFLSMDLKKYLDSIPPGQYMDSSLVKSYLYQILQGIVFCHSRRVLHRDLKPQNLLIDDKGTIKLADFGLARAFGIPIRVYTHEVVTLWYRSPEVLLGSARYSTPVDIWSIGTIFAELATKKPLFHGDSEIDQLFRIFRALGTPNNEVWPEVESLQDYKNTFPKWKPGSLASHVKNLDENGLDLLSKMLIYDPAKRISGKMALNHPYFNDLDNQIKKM
T1 sequence (P14635 whole entry partner): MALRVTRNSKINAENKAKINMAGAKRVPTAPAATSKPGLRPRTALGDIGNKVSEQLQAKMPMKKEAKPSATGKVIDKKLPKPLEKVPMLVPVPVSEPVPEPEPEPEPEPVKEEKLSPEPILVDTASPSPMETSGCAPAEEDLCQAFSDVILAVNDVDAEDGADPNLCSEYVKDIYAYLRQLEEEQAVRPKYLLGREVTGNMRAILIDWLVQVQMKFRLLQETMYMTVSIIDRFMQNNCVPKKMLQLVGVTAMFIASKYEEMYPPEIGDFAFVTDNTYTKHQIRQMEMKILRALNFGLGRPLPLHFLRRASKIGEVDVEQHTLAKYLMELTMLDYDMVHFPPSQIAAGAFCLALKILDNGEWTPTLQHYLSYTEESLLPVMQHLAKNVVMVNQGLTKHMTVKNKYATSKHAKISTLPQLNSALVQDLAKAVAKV

| SMILES | IC50 [1] [µM] | IC50 [2] [µM] | IC50 [3] [µM] | IC50 [4] [µM] | IC50 [5] [µM] | IC50 [6] [µM] |
| --- | --- | --- | --- | --- | --- | --- |
| Cn1ccc2c(-c3ccnc(Nc4cccc(Cl)c4)n3)cccc21 [Compound 3, (3-Chloro-phenyl)-[4-(1-methyl-1H-indol-4-yl)-pyrimidin-2-yl]-amine] | 5 to 15 | < 5 | < 5 | – | – | – |
| CCn1ccc2c(-c3ccnc(Nc4cccc(Cl)c4)n3)cccc21 [Compound 4, (3-Chloro-phenyl)-[4-(1-ethyl-1H-indol-4-yl)-pyrimidin-2-yl]-amine] | < 5 | 5 to 15 | < 5 | – | – | – |
| CCOC(=O)Cn1ccc2c(-c3ccnc(Nc4cccc(Cl)c4)n3)cccc21 [Compound 5, Ethyl {4-[2-(3-chloro-phenylamino)-pyrimidin-4-yl]-indol-1-yl}acetate] | > 50 | > 50 | < 5 | – | – | – |
| Clc1cccc(Nc2nccc(-c3cccc4c3ccn4Cc3ccccc3)n2)c1 [Compound 6, [4-(1-Benzyl-1H-indol-4-yl)-pyrimidin-2-yl]-(3-chloro-phenyl)-amine] | > 50 | > 50 | < 5 | – | – | – |
| OCCn1ccc2c(-c3ccnc(Nc4cccc(Cl)c4)n3)cccc21 [Compound 7, 2-{4-[2-(3-chloroaniline)-pyrimidin-4-yl]-indol-1-yl}-ethanol] | 5 to 15 | < 5 | < 5 | – | – | – |
| OCCCn1ccc2c(-c3ccnc(Nc4cccc(Cl)c4)n3)cccc21 [Compound 8, 3-{4-[2-(3-Chloro-phenylamino)-pyrimidin-4-yl]-indol-1-yl}-propan-1-ol] | 5 to 15 | < 5 | < 5 | – | – | – |
| Clc1cccc(Nc2nccc(-c3cccc4c3ccn4CCN3CCOCC3)n2)c1 [Compound 9, (3-Chloro-phenyl)-{4-[1-(2-morpholin-4-yl-ethyl)-1H-indol-4-yl]-pyrimidin-2-yl}-amine] | > 50 | 5 to 15 | < 5 | 15 to 50 | – | – |
| CN(C)CCn1ccc2c(-c3ccnc(Nc4cccc(Cl)c4)n3)cccc21 [Compound 10, (3-Chloro-phenyl)-{4-[1-(2-dimethylamino-ethyl)-1H-indol-4-yl]-pyrimidin-2-yl}-amine] | < 5 | < 5 | < 5 | – | – | – |
| CN(C)CCCn1ccc2c(-c3ccnc(Nc4cccc(Cl)c4)n3)cccc21 [Compound 11, (3-Chloro-phenyl)-{4-[1-(3-dimethylamino-propyl)-1H-indol-4-yl]-pyrimidin-2-yl}-amine] | 5 to 15 | < 5 | < 5 | – | – | – |
| CNC(=O)Cn1ccc2c(-c3ccnc(Nc4cccc(Cl)c4)n3)cccc21 [Compound 12, 2-{4-[2-(3-Chloro-phenylamino)-pyrimidin-4-yl]-indol-1-yl}-N-methyl-acetamide] | < 5 | < 5 | < 5 | – | – | – |
| CN(C)C(=O)Cn1ccc2c(-c3ccnc(Nc4cccc(Cl)c4)n3)cccc21 [Compound 14, 2-{4-[2-(3-Chloro-phenylamino)-pyrimidin-4-yl]-indol-1-yl}-N,N-dimethyl-acetamide] | 5 to 15 | < 5 | < 5 | – | – | – |
| CC(C)(C)NC(=O)Cn1ccc2c(-c3ccnc(Nc4cccc(Cl)c4)n3)cccc21 [Compound 15, N-tert-Butyl-2-{4-[2-(3-chloro-phenylamino)-pyrimidin-4-yl]-indol-1-yl}-acetamide] | < 5 | < 5 | < 5 | – | – | – |
| CC(C)CNC(=O)Cn1ccc2c(-c3ccnc(Nc4cccc(Cl)c4)n3)cccc21 [Compound 16, 2-{4-[2-(3-Chloro-phenylamino)-pyrimidin-4-yl]-indol-1-yl}-N-isobutyl-acetamide] | > 50 | > 50 | < 5 | – | – | – |
| O=C(Cn1ccc2c(-c3ccnc(Nc4cccc(Cl)c4)n3)cccc21)NCc1ccccc1 [Compound 17, N-Benzyl-2-{4-[2-(3-chloro-phenylamino)-pyrimidin-4-yl]-indol-1-yl}-acetamide] | > 50 | > 50 | > 50 | – | – | – |
| O=C(Cn1ccc2c(-c3ccnc(Nc4cccc(Cl)c4)n3)cccc21)NCCO [Compound 18, 2-{4-[2-(3-Chloro-phenylamino)-pyrimidin-4-yl]-indol-1-yl}-N-(2-hydroxy-ethyl)-acetamide] | 5 to 15 | < 5 | < 5 | – | – | – |
| NCCNC(=O)Cn1ccc2c(-c3ccnc(Nc4cccc(Cl)c4)n3)cccc21 [Compound 19, N-(2-Amino-ethyl)-2-{4-[2-(3-chloro-phenylamino)-pyrimidin-4-yl]-indol-1-yl}-acetamide] | 5 to 15 | > 50 | < 5 | – | – | – |
| O=C(Cn1ccc2c(-c3ccnc(Nc4cccc(Cl)c4)n3)cccc21)N1CCNCC1 [Compound 20, 2-{4-[2-(3-Chloro-phenylamino)-pyrimidin-4-yl]-indol-1-yl}-1-piperazin-1-yl-ethanone] | > 50 | > 50 | < 5 | – | – | – |
| NC1CCN(C(=O)Cn2ccc3c(-c4ccnc(Nc5cccc(Cl)c5)n4)cccc32)CC1 [Compound 21, 1-(4-Amino-piperidin-1-yl)-2-{4-[2-(3-chloro-phenylamino)-pyrimidin-4-yl]-indol-1-yl}-ethanone] | > 50 | 15 to 50 | < 5 | – | – | – |
| O=C(Cn1ccc2c(-c3ccnc(Nc4cccc(Cl)c4)n3)cccc21)NCC1CCCN1 (centres unmarked) [Compound 22, 2-{4-[2-(3-Chloro-phenylamino)-pyrimidin-4-yl]-indol-1-yl}-N-pyrrolidin-2-ylmethyl-acetamide] | 5 to 15 | < 5 | < 5 | – | – | – |
| O=C(Cn1ccc2c(-c3ccnc(Nc4cccc(Cl)c4)n3)cccc21)NCCN1CCCC1 [Compound 23, 2-{4-[2-(3-Chloro-phenylamino)-pyrimidin-4-yl]-indol-1-yl}-N-(2-pyrrolidin-1-yl-ethyl)-acetamide] | 15 to 50 | > 50 | < 5 | – | – | – |
| O=C(O)Cn1ccc2c(-c3ccnc(Nc4cccc(Cl)c4)n3)cccc21 [Compound 24, {4-[2-(3-Chloro-phenylamino)-pyrimidin-4-yl]-indol-1-yl}-acetic acid] | 15 to 50 | 5 to 15 | < 5 | – | – | – |
| Cc1cnc(Nc2cccc(Cl)c2)nc1-c1cccc2[nH]ccc12 [Compound 30, (3-Chloro-phenyl)-[4-(1H-indol-4-yl)-5-methyl-pyrimidin-2-yl]-amine] | 15 to 50 | 15 to 50 | < 5 | – | – | – |
| Cc1cnc(Nc2cccc(S(N)(=O)=O)c2)nc1-c1cccc2[nH]ccc12 [Compound 32, 3-[4-(1H-Indol-4-yl)-5-methyl-pyrimidin-2-ylamino]-benzenesulfonamide] | < 5 | < 5 | < 5 | – | < 5 | < 5 |
| COc1cnc(Nc2cccc(S(N)(=O)=O)c2)nc1-c1cccc2[nH]ccc12 [Compound 33, 3-[4-(1H-Indol-4-yl)-5-methoxy-pyrimidin-2-ylamino]-benzenesulfonamide] | < 5 | < 5 | < 5 | – | – | – |
| NS(=O)(=O)c1cccc(Nc2ncc(F)c(-c3cccc4[nH]ccc34)n2)c1 [Compound 34, 3-[5-Fluoro-4-(1H-indol-4-yl)-pyrimidin-2-ylamino]-benzenesulfonamide] | < 5 | < 5 | < 5 | – | – | – |
| Cc1ccc2[nH]ccc2c1-c1ccnc(Nc2cccc(S(C)(=O)=O)c2)n1 [Compound 35, (3-Methanesulfonyl-phenyl)-[4-(5-methyl-1H-indol-4-yl)-pyrimidin-2-yl]-amine] | < 5 | < 5 | < 5 | – | 5 to 15 | < 5 |
